Measured values from ChEMBL document CHEMBL5729210, “Benzodiazepine derivatives as RSV inhibitors” (2022).
Where “and” joins values, the source holds several entries; their conditions need not be identical. Identical values can stand only once.

assay: RSV-A Assay: The description is Japanese.

Row | Structure (SMILES) | EC50
1 | O=C1Nc2ccccc2C(c2ccc(F)cc2)=NC1Nc1nnc(-c2ccc(F)cc2)o1 (stereo unspecified) | > 800 nM
2 | COCCCc1cc(C(F)(F)F)cnc1C(=O)NN | > 800 nM
3 | N#Cc1ccc(N2CCOCC2)c(-c2nnc(N[C@H]3N=C(c4ccccc4)c4ccccc4NC3=O)o2)n1 | < 400 nM
4 | COC(C)(C)CNc1cc(C(F)(F)F)cnc1-c1nnc(N[C@H]2N=C(c3ccccc3)c3ccccc3NC2=O)o1 | > 800 nM
5 | O=C1Nc2ccccc2C(c2ccccc2)=N[C@@H]1Nc1nnc(-c2ncc(C(F)(F)F)cc2NC[C@@H]2CCCO2)o1 | in the range around 600 nM
6 | COc1ccn2ncc(-c3nnc(N[C@H]4N=C(c5ccccc5)c5ccccc5NC4=O)o3)c2c1 | > 800 nM
7 | O=C1Nc2ccccc2C(c2cccc(F)c2)=NC1Nc1nnc(-c2ccc(F)cc2)o1 (stereo unspecified) | in the range around 600 nM
8 | O=C1Nc2ccccc2C(c2ccccc2)=N[C@@H]1Nc1nnc(-c2nc(-c3cccnc3)sc2N2CCOCC2)o1 | < 400 nM
9 | O=C1Nc2c(F)cccc2C(c2ccccc2)=N[C@@H]1Nc1nnc(-c2ccccc2N2CCOCC2)o1 | < 400 nM
10 | Cc1cc(-c2nnc(N[C@H]3N=C(c4ccccc4)c4ccccc4NC3=O)o2)c(N2CCOCC2)s1 | < 400 nM
11 | O=C1Nc2ccccc2C(c2ccccc2)=NC1Nc1cnc(-c2ccc(F)cc2)cn1 (stereo unspecified) | > 800 nM
12 | O=C1Nc2ccccc2C(c2ccccc2)=N[C@@H]1Nc1nnc(-c2ccnn2-c2ccccc2)o1 | > 800 nM
13 | O=C1Nc2ccccc2C(c2ccccc2)=NC1Nc1ncc(-c2ccccc2)cn1 (stereo unspecified) | > 800 nM
14 | O=C1Nc2ccccc2C(c2ccccc2)=N[C@@H]1Nc1nnc(-c2ncc(C(F)(F)F)cc2N[C@H]2CC[C@H]2O)o1 | > 800 nM
15 | O=C1Nc2c(F)cccc2C(c2ccccc2)=NC1Nc1nnc(-c2ccc(N3CCOCC3)cc2)o1 (stereo unspecified) | in the range around 600 nM
16 | N#Cc1cnc(-c2nnc(N[C@H]3N=C(c4ccccc4)c4cccc(F)c4NC3=O)o2)c(N2CCOCC2)c1 | < 400 nM
17 | C#Cc1nc(C(=O)O)c(N2CCOCC2)s1 | < 400 nM
18 | CS(=O)(=O)c1cnc(-c2nnc(N[C@H]3N=C(c4ccccc4)c4ccccc4NC3=O)o2)c(N2CCOCC2)c1 | > 800 nM
19 | O=C1Nc2ccccc2C(c2ccccc2)=N[C@@H]1Nc1nnc(-c2ncsc2N2CCOCC2)o1 | < 400 nM
20 | O=C1Nc2ccccc2C(c2ccccc2)=N[C@@H]1Nc1nnc(-c2nc(C(F)(F)F)sc2N2CCOCC2)o1 | < 400 nM
21 | COc1ccc(-c2ccc(NC3N=C(c4ccccc4)c4ccccc4NC3=O)nn2)cc1 (stereo unspecified) | > 800 nM
22 | Cc1nc(-c2nnc(N[C@H]3N=C(c4ccccc4)c4ccccc4NC3=O)o2)c(C2=CCOCC2)s1 | < 400 nM
23 | CCOC(=O)c1nc(-c2ccc(C(F)(F)F)nc2)sc1N1CCOCC1 | < 400 nM

Row | Structure (SMILES) | EC50
24 | Cc1nc(-c2nnc(N[C@H]3N=C(c4ccccc4)c4ccccc4NC3=O)o2)c(Cl)s1 | > 800 nM
25 | CCOC(=O)c1nc(-c2cnn(C)c2)sc1N1CCOCC1 | < 400 nM
26 | COCCn1ccc2cccc(C(=O)OC)c21 | > 800 nM
27 | O=C1Nc2ccccc2C(c2ccccc2)=N[C@@H]1Nc1nnc(-c2ncsc2C2=CCOCC2)o1 | < 400 nM
28 | O=C1Nc2ccccc2C(c2ccccc2)=N[C@@H]1Nc1nnc(-c2nc(C3CCCCC3)sc2N2CCOCC2)o1 | < 400 nM
29 | CCOC(=O)c1nc(C)sc1NCCOC | < 400 nM
30 | N#Cc1cnc(-c2nnc(N[C@H]3N=C(c4ccccc4)c4ccccc4NC3=O)o2)c(N2C3CCC2COC3)c1 | in the range around 600 nM
31 | O=C1Nc2ccccc2C(c2ccccc2)=NC1Nc1nnc(-c2ccc(F)cc2)[nH]1 (stereo unspecified) | > 800 nM
32 | O=C1Nc2ccccc2C(c2ccccc2)=NC1Nc1ccc(-c2ccccc2N2CCOCC2)nn1 (stereo unspecified) | > 800 nM
33 | COC(=O)c1nc(Br)sc1N1CCOCC1 | < 400 nM
34 | COCCn1cc(-c2nnc(N[C@H]3N=C(c4ccccc4)c4ccccc4NC3=O)o2)c(N2CCOCC2)n1 | < 400 nM
35 | COCC1(Nc2cc(C(F)(F)F)cnc2-c2nnc(N[C@H]3N=C(c4ccccc4)c4ccccc4NC3=O)o2)CC1 | > 800 nM
36 | O=C1Nc2ccccc2C(c2ccccc2)=N[C@@H]1Nc1nnc(-c2nc(C3CCC3)sc2N2CCOCC2)o1 | < 400 nM
37 | N#Cc1cnc(-c2nnc(N[C@H]3N=C(c4ccccc4)c4ccccc4NC3=O)o2)c(N2CCOCC2)c1 | < 400 nM
38 | CCOC(=O)c1cn(CC)nc1N1CCOCC1 | < 400 nM
39 | COCC(C)(C)Nc1cc(C(F)(F)F)cnc1-c1nnc(N[C@H]2N=C(c3ccccc3)c3ccccc3NC2=O)o1 | > 800 nM
40 | O=C1Nc2ccccc2C(c2ccccc2)=NC1Nc1nnc(C2CC2)[nH]1 (stereo unspecified) | > 800 nM
41 | Cc1nc(-c2nnc(N[C@H]3N=C(c4ccccc4)c4ccccc4NC3=O)o2)cs1 | > 800 nM
42 | CSC(=N)NC1N=C(c2ccccc2)c2ccccc2NC1=O (stereo unspecified) | < 400 nM
43 | COC(=O)c1occc1N1CCOCC1 | < 400 nM
44 | N#Cc1ccc(-c2nnc(NC3N=C(c4ccccc4)c4ccccc4NC3=O)[nH]2)cc1 (stereo unspecified) | in the range around 600 nM
45 | O=C1Nc2ccccc2C(c2ccccc2)=N[C@@H]1Nc1nnc(-c2ncc(C(F)(F)F)cc2NC[C@H]2CCCO2)o1 | < 400 nM
46 | N#Cc1ccc(-c2cnc(NC3N=C(c4ccccc4)c4ccccc4NC3=O)o2)cc1 (stereo unspecified) | in the range around 600 nM

Row | Structure (SMILES) | EC50
47 | C[C@@H]1CN(c2cc(C#N)cnc2-c2nnc(N[C@H]3N=C(c4ccccc4)c4ccccc4NC3=O)o2)CCO1 | in the range around 600 nM
48 | O=C1Nc2ccccc2C(c2ccccc2)=NC1Nc1nnc(-c2ccncc2)[nH]1 (stereo unspecified) | > 800 nM
49 | O=C1Nc2ccccc2C(c2ccccc2)=N[C@@H]1Nc1nnc(-c2cnn(-c3ccccc3)c2)o1 | in the range around 600 nM
50 | CCOC(=O)c1ccnc2ccc(OC)cc12 | > 800 nM
51 | COCCc1cccn2ncc(-c3nnc(N[C@H]4N=C(c5ccccc5)c5ccccc5NC4=O)o3)c12 | > 800 nM
52 | CCOC(=O)c1ccnc2ccc(COC)cc12 | > 800 nM
53 | O=C1Nc2ccccc2C(c2ccccc2)=N[C@@H]1Nc1nnc(-c2csc(N3CCOCC3)n2)o1 | in the range around 600 nM
54 | N#Cc1ccc(-c2ccc(NC3N=C(c4ccccc4)c4ccccc4NC3=O)nn2)cc1 (stereo unspecified) | < 400 nM
55 | N#Cc1cccc(C2=NC(Nc3nnc(-c4ccc(F)cc4)o3)C(=O)Nc3ccccc32)c1 (stereo unspecified) | > 800 nM
56 | C[C@H]1CN(c2cc(C#N)cnc2-c2nnc(N[C@H]3N=C(c4ccccc4)c4ccccc4NC3=O)o2)CCO1 | < 400 nM
57 | COC(=O)c1cc(C2CC2)sc1N1CCOCC1 | < 400 nM
58 | O=C1Nc2ccccc2C(c2ccccc2)=NC1Nc1ccc(-c2ccncc2)nn1 (stereo unspecified) | > 800 nM
59 | O=C1Nc2ccccc2C(c2ccccc2)=N[C@@H]1Nc1nnc(-c2cc(C(F)(F)F)sc2N2CCOCC2)o1 | < 400 nM
60 | O=C1Nc2ccccc2C(c2ccccc2)=NC1Nc1nnc(-c2ccccc2C2=CCOCC2)o1 (stereo unspecified) | > 800 nM
61 | O=C1Nc2c(F)cccc2C(c2ccccc2)=N[C@H]1Nc1nnc(-c2ncc(C(F)(F)F)cc2N2CCOCC2)o1 | < 400 nM
62 | O=C1Nc2c(F)cccc2C(c2ccccc2)=N[C@H]1Nc1nnc(-c2cccnc2N2CCOCC2)o1 | > 800 nM and < 400 nM
63 | O=C1Nc2ccccc2C(c2ccccc2)=NC1Nc1nnc(-c2ccccc2C2CCOCC2)o1 (stereo unspecified) | > 800 nM
64 | O=C1Nc2c(Cl)cccc2C(c2ccccc2)=NC1Nc1nnc(-c2ccccc2N2CCOCC2)o1 (stereo unspecified) | > 800 nM
65 | COc1ccccc1-c1nc(-c2nnc(N[C@H]3N=C(c4ccccc4)c4ccccc4NC3=O)o2)c(N2CCOCC2)s1 | < 400 nM
66 | CN1CCN(c2cc(C(F)(F)F)cnc2-c2nnc(N[C@H]3N=C(c4ccccc4)c4ccccc4NC3=O)o2)CC1 | in the range around 600 nM
67 | CCc1nc(-c2nnc(N[C@H]3N=C(c4ccccc4)c4ccccc4NC3=O)o2)c(N2CCOCC2)s1 | < 400 nM
68 | Cc1nc(-c2nnc(N[C@H]3N=C(c4ccccc4)c4ccccc4NC3=O)o2)c(C2CCOCC2)s1 | < 400 nM
69 | Cc1nc(-c2nnc(N[C@H]3N=C(c4ccccc4)c4ccccc4NC3=O)o2)c(N2CCOCC2)o1 | < 400 nM

Row | Structure (SMILES) | EC50
70 | O=C1Nc2ccccc2C(c2ccccc2)=NC1Nc1ncc(-c2ccc(F)cc2)o1 (stereo unspecified) | > 800 nM
71 | CC(C)n1cc(-c2nnc(N[C@H]3N=C(c4ccccc4)c4ccccc4NC3=O)o2)c(N2CCOCC2)n1 | < 400 nM
72 | COCCCc1sc(C(F)(F)F)nc1-c1nnc(N[C@H]2N=C(c3ccccc3)c3ccccc3NC2=O)o1 | > 800 nM
73 | O=C1Nc2ccccc2C(c2ccccc2)=N[C@@H]1Nc1nnc(-c2ncc(C(F)(F)F)cc2N2CCC(O)CC2)o1 | > 800 nM
74 | CCOC(=O)c1ncc(C(F)(F)F)cc1N | > 800 nM
75 | COCCCc1cc(C(F)(F)F)cnc1-c1nnc(N[C@H]2N=C(c3ccccc3)c3ccccc3NC2=O)o1 | > 800 nM
76 | O=C1Nc2ccccc2C(c2ccccc2)=N[C@@H]1Nc1nnc(-c2ncc(C(F)(F)F)cc2N[C@@H]2CCC[C@@H]2O)o1 | in the range around 600 nM
77 | O=C1Nc2ccccc2C(c2ccccc2)=NC1Nc1ncc(-c2ccc(Br)cc2)o1 (stereo unspecified) | > 800 nM
78 | O=C1Nc2ccccc2C(c2ccccc2)=NC1Nc1ccc(-c2ccc(F)cc2)nn1 (stereo unspecified) | > 800 nM
79 | CCOC(=O)c1nc(-c2ccc(F)cn2)sc1N1CCOCC1 | < 400 nM
80 | O=C1Nc2ccccc2C(c2ccccc2)=N[C@@H]1Nc1nnc(-c2ncc(C(F)(F)F)cc2NCc2ccco2)o1 | > 800 nM
81 | O=C1Nc2ccccc2C(c2ccccc2)=N[C@@H]1Nc1nnc(-c2nc(-c3ccccc3)sc2N2CCOCC2)o1 | < 400 nM
82 | CC(F)(F)c1nc(-c2nnc(N[C@H]3N=C(c4ccccc4)c4ccccc4NC3=O)o2)c(N2CCOCC2)s1 | < 400 nM
83 | O=C1Nc2ccccc2C(c2ccccc2)=NC1Nc1nnc(-c2nc(Br)sc2N2CCOCC2)o1 (stereo unspecified) | < 400 nM
84 | O=C1Nc2ccccc2C(c2ccccc2)=N[C@@H]1Nc1nnc(-c2nsnc2N2CCOCC2)o1 | < 400 nM
85 | CCOC(=O)c1cn(-c2cccnc2)nc1N1CCOCC1 | < 400 nM
86 | O=C1Nc2ccccc2C(c2ccccc2)=NC1Nc1nnc(-c2ccccc2N2CCOCC2)[nH]1 (stereo unspecified) | > 800 nM
87 | COC(=O)c1nc(-c2ccccn2)sc1Cl | < 400 nM
88 | O=C1Nc2ccccc2C(c2ccccc2)=N[C@@H]1Nc1nnc(-c2ncc(C(F)(F)F)cc2N[C@H]2CCC[C@H]2O)o1 | in the range around 600 nM
89 | O=C1Nc2c(F)cccc2C(c2ccccc2)=N[C@H]1Nc1nnc(-c2ccccc2N2CCOCC2)o1 | > 800 nM
90 | CC1(Nc2cc(C(F)(F)F)cnc2-c2nnc(N[C@H]3N=C(c4ccccc4)c4ccccc4NC3=O)o2)CCOC1 (stereo partly specified) | > 800 nM
91 | COC[C@@H]1C[C@H]1c1sc(C(F)(F)F)nc1-c1nnc(N[C@H]2N=C(c3ccccc3)c3ccccc3NC2=O)o1 | > 800 nM
